Laboratory results published in patent US20180303863A1, “Pharmaceutical Composition for Treating STK11-Mutation Cancer Using Cardiac Glycosides” (INDUSTRY-ACADEMIC COOPERATION FOUNDATION SOOKMYUNG WOMEN'S …, priority 2014, published 2018).

Tests used:
[1] = test system: STK11-mutant lung cancer cell lines (A549, H460, H1993, H1395) and STK11-wild-type lung cancer cell lines (H226, H322M, H82, H524); assay: Cell viability (CellTiter-Blue) in STK11-mutant and STK11-wild-type lung cancer cell lines; type: cell-based; settings: varying concentration, 72 hours; FIG. 5A
Procedure: NCI-60 lung cancer cell lines (NCI-H460, A549, NCI-H322M, and NCI-H226) were obtained from the U.S. National Cancer Institute (NCI DTP). All cells were grown in an RPMI medium (GIBCO) supplemented with 10% FBS (GIBCO) and penicillin/[…] (GIBCO), and kept at 37° C. in a humidified atmosphere of 5% CO2.
A total of three cardiac glycosides (chemicals) having the structures shown in FIG. 1 were screened in a lung cancer cell line. Digoxin, ouabain, and digitoxin were all purchased from Sigma Aldrich.
(§1) The cells were seeded in 96-well plates at a density of 2,000, 1,000, and 200 cells per well, and cultured for 3, 7, and 14 days, respectively. After 24 hours of seeding, the cells were treated with a chemical diluted with digitoxin and ouabain at working concentrations of 0.05 μM and 0.02 μM, respectively. The cells were again cultured for 72 hours (3 days), 7 days, and 14 days, and then the cell viability was measured using a CellTiter-Blue assay kit.

[2] = test system: STK11 mutant cell lines (NCI60 panel); assay: CLEA enrichment analysis of GI50 profiles on the NCI60 panel by STK11 genotype; type: cell-based; settings: MOLT-4, A549, NCI-H460, NCI-H23, SK-MEL-5, DU-145, FIG. 3A
Procedure: To identify sensitivity patterns of the genotype-specific compounds, a subset of the compounds was selected using a GI50 profile pattern on a CLEA map.
First of all, a −logGI50 value of 8 (that is, GI50=0.01 μM) was chosen as a bipartite cutoff used to determine to which cell lines a compound was sensitive on a NCI60 panel. In this case, the compound was sensitive when the value is greater than 8, and was not sensitive when the value is less than 8.
Next, an enrichment score (an AUC value) was used to select the genotype-specific compounds in a CLEA assay.
An AUC value >80 and a P value <0.01 were used as cutoff values used to determine that a compound had significant sensitivity to certain genotypes. In this example, compounds showing strong potency (that is, a −logGI50 value of 8) to at least one cell line on the NCI60 panel were included.
As a result, a total of three non-overlapping compounds satisfying the above filtering requirements were compiled. Hierarchical clustering of these selected compounds was carried out on a category of STK11 genotypes. In this example, three main groups of compounds showing uniform sensitivity based on the mutant genotypes were identified. Such a cluster of compounds were sensitive to genetic mutations in an STK11 gene.

[3] = test system: STK11-mutant cell line (A549) and cell line (A549-STK11) in which STK11 was restored into the wild type; assay: Cell viability (CellTiter-Blue) in A549 versus the STK11-restored A549-STK11 line; type: cell-based; settings: for inhibition of cell growth in lung cancer cell lines A549 and A549-STK11: 96-well plate; for response of the STK11-restored cell line compared to the STK11-mutant cell line (inhibition of cell growth, TiterBlue): FIG. 5B
Procedure: as §1
In this case, each of a STK11-mutant cell line (A549) and a cell line (A549-STK11) in which STK11 was restored into the wild type were used as the lung cancer cell line.

[4] = test system: cell line (A549-LKB1wt) in which STK11 was restored into the wild type; assay: Mouse tumor xenograft model, A549-LKB1wt (STK11 restored); type: in vivo, athymic nude mice; settings: oral, three times a week for 5 weeks, 60 or 180 ng/kg/body weight; FIG. 10B
Procedure: (§2) After athymic nude mice (Oriental Bio Inc) were purchased, the animal model was prepared according to the standard guidelines provided by the Catholic University of Korea-Institutional Animal Care and Use Committee (CUK-IACUC). A549 or A549-LKB 1 wt were subcutaneously injected (3×10^6 cells/ml) into the above animal model, and divided into three groups: (1) an untreated control group (n=10); (2) a group in which the mice were treated with digoxin at 60 ng/kg/body weight (n=10); (3) a group in which the mice were treated with digoxin at 180 ng/kg/body weight (n=10). Digoxin or a vehicle (1.9% DMSO/10% polyethylene glycol 400/l×PBS: a total volume of 200 μl) was orally administered three times a week for 5 weeks. Then, the diameter of each tumor base was measured, and the size of a tumor was then calculated according to the following equation: Tumor size (mm^3)=(length×width×height×0.52). Also, the mice were monitored until the tumor size reached 1 cm^3, and then the mice were sacrificed, and tumors were extracted from the mice.

[5] = test system: A549 lung cancer cell line; assay: Mouse tumor xenograft model, A549; type: in vivo, athymic nude mice
Procedure: as §2

| Structure (SMILES) | inhibition of cell growth, STK11-mutant compared to STK11-wild-type lung cancer cell lines [1] | sensitivity (GI50 profile) in 6 cell lines with STK11 mutation potential [2] | inhibition of cell growth in lung cancer cell lines A549 and A549-STK11 [3] | response of the STK11-restored cell line compared to the STK11-mutant cell line (inhibition of cell growth, TiterBlue) [3] | growth of a tumor [4] | tumor growth in the STK11-mutant model compared to the wild-type STK11-expressing model ([5]; FIGS. 10C, 10D, 10E) | growth of a tumor ([5]; oral, three times a week for 5 weeks, 60 or 180 ng/kg/body weight, FIG. 10A) |
| --- | --- | --- | --- | --- | --- | --- | --- |
| C[C@@H]1O[C@@H](O[C@H]2C[C@@H](O)[C@]3(CO)[C@H]4[C@H](O)C[C@]5(C)[C@@H](C6=CC(=O)OC6)CC[C@]5(O)[C@@H]4CC[C@]3(O)C2)[C@H](O)[C@H](O)[C@H]1O [ouabain] | specifically inhibited the cell growth | relatively high sensitivity | the cell growth was inhibited | resistant | – | – | – |
| C[C@H]1O[C@@H](O[C@H]2[C@@H](O)C[C@H](O[C@H]3[C@@H](O)C[C@H](O[C@H]4CC[C@@]5(C)[C@H](CC[C@@H]6[C@@H]5CC[C@]5(C)[C@@H](C7=CC(=O)OC7)CC[C@]65O)C4)O[C@@H]3C)O[C@@H]2C)C[C@H](O)[C@@H]1O [digitoxin] | specifically inhibited the cell growth | relatively high sensitivity | the cell growth was inhibited | resistant | – | – | – |
| C[C@H]1O[C@@H](O[C@H]2[C@@H](O)C[C@H](O[C@H]3[C@@H](O)C[C@H](O[C@H]4CC[C@@]5(C)[C@H](CC[C@@H]6[C@@H]5C[C@@H](O)[C@]5(C)[C@@H](C7=CC(=O)OC7)CC[C@]65O)C4)O[C@@H]3C)O[C@@H]2C)C[C@H](O)[C@@H]1O [digoxin] | specifically inhibited the cell growth | relatively high sensitivity | the cell growth was inhibited | resistant | did not have the same effect | selectively reduced | reduced in a time-dependent manner |
